{"source": "paper PMC10046961", "about": "“High-Throughput Screening Assay for Detecting Drug-Induced Changes in Synchronized Neuronal Oscillations and Potential Seizure Risk Based on Ca^2+ Fluorescence Measurements in Human Induced Pluripotent Stem Cell (hiPSC)-Derived Neuronal 2D and 3D Cultures” (Cells, 2023)", "key": {"[1]": {"test_system": "hiPSC-derived neurons co-cultured with human primary astrocytes in 2D", "test": "Ca2+ transient oscillation assay (FDSS), 2D co-culture", "format": "cell-based", "details": "for effect on peak number / Ca2+ neuronal oscillations, in words: 2D format; for activation at 11.11 µM / activation at 33.33 µM / activation at 100 µM / activation at 300 µM / activation at 0.11 µM / activation at 0.33 µM / activation at 1 µM / activation at 3 µM: Homo sapiens, 1 h, 60 min", "how_it_was_run": "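Cultures were 10,000 CW50065 hiPSC excitatory neurons plus 2500 primary human astrocytes per well. Recordings used Cal-520 dye in HBSS/HEPES/glucose at 37 °C, with a 470/540 nm read at 2 Hz. Oscillations were stabilized with 0.04% DMSO, read for 20 min, then read again 60 min after compound addition (final DMSO 0.1%).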"}, "[2]": {"test_system": "hiPSC-derived neurons co-cultured with human primary astrocytes in 3D", "test": "Ca2+ transient oscillation assay (FDSS), 3D spheroids", "format": "cell-based", "details": "for Area under the curve - 3D Mean / Peak Number—3D Mean / Peak amplitude - 3D Mean / Peak width - 3D Mean / Peak-to-peak interval - 3D Mean: 60 min", "how_it_was_run": "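Fura-2 fluorescence was read twice for 20 min each: a baseline 10 min after 0.04% DMSO, and again 60 min after compound addition at nominal final concentration. The 3D co-cultures (1:1 hiPSC neurons from a donor and human astrocytes, 8000 each) matured 5 weeks in BrainPhys medium after a 1-week differentiation.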"}, "[3]": {"details": "ref PharmaPendium, cited from earlier work"}, "[4]": {"details": "read-out: Area under the curve - 2D Mean"}, "[5]": {"details": "read-out: Peak amplitude - 2D Mean"}, "[6]": {"details": "read-out: Peak-to-peak interval - 2D Mean"}, "[7]": {"details": "Table 1, peak plasma concentration in men, free therapeutic Cmax"}, "[8]": {"details": "Table 2, highest plasma concentration in humans after the therapeutic dose"}}, "note": "Read-outs that look alike come from different tables or passages of the source. Marks after values point to notes of the source that are not given here."}
{"smiles": "CC(=O)OCC[N+](C)(C)C", "note": "[Acetylcholine]", "values": [{"measurement": "effect on peak number / Ca2+ neuronal oscillations, in words", "setting": "[1]", "result": "significantly reduced peak number"}, {"measurement": "activation at 11.11 µM", "setting": "[1]; [4]", "result": 38.3, "unit": "%"}, {"measurement": "activation at 11.11 µM", "setting": "[1]; read-out: Peak Number—2D Mean", "result": 2.4, "unit": "%"}, {"measurement": "activation at 11.11 µM", "setting": "[1]; [5]", "result": 11.4, "unit": "%"}, {"measurement": "activation at 11.11 µM", "setting": "[1]; read-out: Peak width - 2D Mean", "result": 26.2, "unit": "%"}, {"measurement": "activation at 11.11 µM", "setting": "[1]; [6]", "result": 28, "unit": "%"}, {"measurement": "activation at 33.33 µM", "setting": "[1]; [4]", "result": 19.9, "unit": "%"}, {"measurement": "activation at 33.33 µM", "setting": "[1]; read-out: Peak Number—2D Mean", "result": -31.5, "unit": "%"}, {"measurement": "activation at 33.33 µM", "setting": "[1]; [5]", "result": 2.3, "unit": "%"}, {"measurement": "activation at 33.33 µM", "setting": "[1]; read-out: Peak width - 2D Mean", "result": 16.2, "unit": "%"}, {"measurement": "activation at 33.33 µM", "setting": "[1]; [6]", "result": -25.8, "unit": "%"}, {"measurement": "activation at 100 µM", "setting": "[1]; [4]", "result": -1.3, "unit": "%"}, {"measurement": "activation at 100 µM", "setting": "[1]; read-out: Peak Number—2D Mean", "result": -47.2, "unit": "%"}, {"measurement": "activation at 100 µM", "setting": "[1]; [5]", "result": -17, "unit": "%"}, {"measurement": "activation at 100 µM", "setting": "[1]; read-out: Peak width - 2D Mean", "result": -3.8, "unit": "%"}, {"measurement": "activation at 100 µM", "setting": "[1]; [6]", "result": 11.3, "unit": "%"}, {"measurement": "activation at 300 µM", "setting": "[1]; [4]", "result": -6.1, "unit": "%"}, {"measurement": "activation at 300 µM", "setting": "[1]; read-out: Peak Number—2D Mean", "result": -63.5, "unit": "%"}, {"measurement": "activation at 300 µM", "setting": "[1]; [5]", "result": -12.8, "unit": "%"}, {"measurement": "activation at 300 µM", "setting": "[1]; read-out: Peak width - 2D Mean", "result": 2.6, "unit": "%"}, {"measurement": "activation at 300 µM", "setting": "[1]; [6]", "result": 45.5, "unit": "%"}, {"measurement": "Area under the curve - 3D Mean", "setting": "[2]; 11.11 µM", "result": 109.9, "unit": "% change from baseline"}, {"measurement": "Peak Number—3D Mean", "setting": "[2]; 11.11 µM", "result": "−33.8", "unit": "% change from baseline"}, {"measurement": "Peak amplitude - 3D Mean", "setting": "[2]; 11.11 µM", "result": 90.9, "unit": "% change from baseline"}, {"measurement": "Peak width - 3D Mean", "setting": "[2]; 11.11 µM", "result": 4.2, "unit": "% change from baseline"}, {"measurement": "Peak-to-peak interval - 3D Mean", "setting": "[2]; 11.11 µM", "result": 89.6, "unit": "% change from baseline"}, {"measurement": "Area under the curve - 3D Mean", "setting": "[2]; 33.33 µM", "result": 110.9, "unit": "% change from baseline"}, {"measurement": "Peak Number—3D Mean", "setting": "[2]; 33.33 µM", "result": "−51.6 * % change from baseline"}, {"measurement": "Peak amplitude - 3D Mean", "setting": "[2]; 33.33 µM", "result": 105.2, "unit": "% change from baseline"}, {"measurement": "Peak width - 3D Mean", "setting": "[2]; 33.33 µM", "result": 0.4, "unit": "% change from baseline"}, {"measurement": "Peak-to-peak interval - 3D Mean", "setting": "[2]; 33.33 µM", "result": 38.9, "unit": "% change from baseline"}, {"measurement": "Area under the curve - 3D Mean", "setting": "[2]; 100 µM", "result": 97.3, "unit": "% change from baseline"}, {"measurement": "Peak Number—3D Mean", "setting": "[2]; 100 µM", "result": "−34.9", "unit": "% change from baseline"}, {"measurement": "Peak amplitude - 3D Mean", "setting": "[2]; 100 µM", "result": 88.6, "unit": "% change from baseline"}, {"measurement": "Peak width - 3D Mean", "setting": "[2]; 100 µM", "result": 0.0, "unit": "% change from baseline"}, {"measurement": "Peak-to-peak interval - 3D Mean", "setting": "[2]; 100 µM", "result": "−5.5", "unit": "% change from baseline"}, {"measurement": "Area under the curve - 3D Mean", "setting": "[2]; 300 µM", "result": 72.7, "unit": "% change from baseline"}, {"measurement": "Peak Number—3D Mean", "setting": "[2]; 300 µM", "result": "−68.3 ** % change from baseline"}, {"measurement": "Peak amplitude - 3D Mean", "setting": "[2]; 300 µM", "result": 56.5, "unit": "% change from baseline"}, {"measurement": "Peak width - 3D Mean", "setting": "[2]; 300 µM", "result": "−12.2", "unit": "% change from baseline"}, {"measurement": "Peak-to-peak interval - 3D Mean", "setting": "[2]; 300 µM", "result": 75.9, "unit": "% change from baseline"}, {"measurement": "Free Cmax", "setting": "[3]; [7]", "result": "1000 to 10000", "unit": "nM"}, {"measurement": "Free Cmax", "setting": "[3]; [8]", "result": "1000 to 10000", "unit": "nM"}]}
{"smiles": "Clc1ccc2c(c1)C(N1CCNCC1)=Nc1ccccc1O2", "note": "[Amoxapine]", "values": [{"measurement": "effect on peak number / Ca2+ neuronal oscillations, in words", "setting": "[1]", "result": "significantly reduced peak number"}, {"measurement": "activation at 0.11 µM", "setting": "[1]; [4]", "result": 27.8, "unit": "%"}, {"measurement": "activation at 0.11 µM", "setting": "[1]; read-out: Peak Number—2D Mean", "result": -5.2, "unit": "%"}, {"measurement": "activation at 0.11 µM", "setting": "[1]; [5]", "result": 7.7, "unit": "%"}, {"measurement": "activation at 0.11 µM", "setting": "[1]; read-out: Peak width - 2D Mean", "result": 22, "unit": "%"}, {"measurement": "activation at 0.11 µM", "setting": "[1]; [6]", "result": 8.8, "unit": "%"}, {"measurement": "activation at 0.33 µM", "setting": "[1]; [4]", "result": 25.3, "unit": "%"}, {"measurement": "activation at 0.33 µM", "setting": "[1]; read-out: Peak Number—2D Mean", "result": 25.3, "unit": "%"}, {"measurement": "activation at 0.33 µM", "setting": "[1]; [5]", "result": 12.7, "unit": "%"}, {"measurement": "activation at 0.33 µM", "setting": "[1]; read-out: Peak width - 2D Mean", "result": 14.8, "unit": "%"}, {"measurement": "activation at 0.33 µM", "setting": "[1]; [6]", "result": -7.8, "unit": "%"}, {"measurement": "activation at 1 µM", "setting": "[1]; [4]", "result": 22.8, "unit": "%"}, {"measurement": "activation at 1 µM", "setting": "[1]; read-out: Peak Number—2D Mean", "result": 12.5, "unit": "%"}, {"measurement": "activation at 1 µM", "setting": "[1]; [5]", "result": -1.5, "unit": "%"}, {"measurement": "activation at 1 µM", "setting": "[1]; read-out: Peak width - 2D Mean", "result": 31.7, "unit": "%"}, {"measurement": "activation at 1 µM", "setting": "[1]; [6]", "result": -4.5, "unit": "%"}, {"measurement": "activation at 3 µM", "setting": "[1]; [4]", "result": -40.8, "unit": "%"}, {"measurement": "activation at 3 µM", "setting": "[1]; read-out: Peak Number—2D Mean", "result": -35.3, "unit": "%"}, {"measurement": "activation at 3 µM", "setting": "[1]; [5]", "result": -20.7, "unit": "%"}, {"measurement": "activation at 3 µM", "setting": "[1]; read-out: Peak width - 2D Mean", "result": -37.7, "unit": "%"}, {"measurement": "activation at 3 µM", "setting": "[1]; [6]", "result": 56.7, "unit": "%"}, {"measurement": "Area under the curve - 3D Mean", "setting": "[2]; 0.11 µM", "result": 122.7, "unit": "% change from baseline"}, {"measurement": "Peak Number—3D Mean", "setting": "[2]; 0.11 µM", "result": "−10.1", "unit": "% change from baseline"}, {"measurement": "Peak amplitude - 3D Mean", "setting": "[2]; 0.11 µM", "result": 92.4, "unit": "% change from baseline"}, {"measurement": "Peak width - 3D Mean", "setting": "[2]; 0.11 µM", "result": 11.9, "unit": "% change from baseline"}, {"measurement": "Peak-to-peak interval - 3D Mean", "setting": "[2]; 0.11 µM", "result": 14.8, "unit": "% change from baseline"}, {"measurement": "Area under the curve - 3D Mean", "setting": "[2]; 0.33 µM", "result": 130.2, "unit": "% change from baseline"}, {"measurement": "Peak Number—3D Mean", "setting": "[2]; 0.33 µM", "result": "−2.2", "unit": "% change from baseline"}, {"measurement": "Peak amplitude - 3D Mean", "setting": "[2]; 0.33 µM", "result": 101.9, "unit": "% change from baseline"}, {"measurement": "Peak width - 3D Mean", "setting": "[2]; 0.33 µM", "result": 12.5, "unit": "% change from baseline"}, {"measurement": "Peak-to-peak interval - 3D Mean", "setting": "[2]; 0.33 µM", "result": 7.1, "unit": "% change from baseline"}, {"measurement": "Area under the curve - 3D Mean", "setting": "[2]; 1 µM", "result": 124.0, "unit": "% change from baseline"}, {"measurement": "Peak Number—3D Mean", "setting": "[2]; 1 µM", "result": "−10.8", "unit": "% change from baseline"}, {"measurement": "Peak amplitude - 3D Mean", "setting": "[2]; 1 µM", "result": 102.7, "unit": "% change from baseline"}, {"measurement": "Peak width - 3D Mean", "setting": "[2]; 1 µM", "result": 6.8, "unit": "% change from baseline"}, {"measurement": "Peak-to-peak interval - 3D Mean", "setting": "[2]; 1 µM", "result": 4.4, "unit": "% change from baseline"}, {"measurement": "Area under the curve - 3D Mean", "setting": "[2]; 3 µM", "result": 148.1, "unit": "% change from baseline"}, {"measurement": "Peak Number—3D Mean", "setting": "[2]; 3 µM", "result": "−7.5", "unit": "% change from baseline"}, {"measurement": "Peak amplitude - 3D Mean", "setting": "[2]; 3 µM", "result": 105.1, "unit": "% change from baseline"}, {"measurement": "Peak width - 3D Mean", "setting": "[2]; 3 µM", "result": 21.0, "unit": "% change from baseline"}, {"measurement": "Peak-to-peak interval - 3D Mean", "setting": "[2]; 3 µM", "result": "−6.6", "unit": "% change from baseline"}, {"measurement": "effect on peak number of oscillations, in words", "setting": "[2]; 3D-cultured", "result": "did not significantly change the peak number"}, {"measurement": "Free Cmax", "setting": "[3]; [7]", "result": "40 to 600", "unit": "nM"}, {"measurement": "Free Cmax", "setting": "[3]; [8]", "result": "40 to 600", "unit": "nM"}]}
